The test addresses PD-1/PD-L1 (Homo sapiens (Human), UniProt Q9NZQ7). As to the kind of experiment: PD-1/PD-L1 Homogenous Time-Resolved Fluorescence (HTRF) binding assay. To be noted: PD-L1-His 10 nM, PD-1-Ig 20 nM; read-out: HTRF IC50. The text has this:
Methods for Testing the Ability of Macrocyclic Peptides to Compete for the Binding of PD-1 to PD-L1 Using Homogenous Time-Resolved Fluorescence (HTRF) Binding Assays
The ability of the compounds of formula (I) to bind to PD-L1 was investigated using a PD-1/PD-L1 Homogenous Time-Resolved Fluorescence (HTRF) binding assay.
Homogenous Time-Resolved Fluorescence (HTRF) Binding Assay
The interaction of PD-1 and PD-L1 can be assessed using soluble, purified preparations of the extracellular domains of the two proteins. The PD-1 and PD-L1 protein extracellular domains were expressed as fusion proteins with detection tags, for PD-1, the tag was the Fc portion of Immunoglobulin (PD-1-Ig) and for PD-L1 it was the 6 histidine motif (PD-L1-His). All binding studies were performed in an HTRF assay buffer consisting of dPBS supplemented with 0.1% […] bovine serum albumin and 0.05% (v/v) Tween-20. For the h/PD-L1-His binding assay, inhibitors were pre-incubated with PD-L1-His (10 nM final) for 15 m in 4 μl of assay buffer, followed by addition of PD-1-Ig (20 nM final) in 1 μl of assay buffer and further incubation for 15 m. HTRF detection was achieved using europium cryptate-labeled anti-Ig (1 nM final) and allophycocyanin (APC) labeled anti-His (20 nM final). Antibodies were diluted in HTRF detection buffer and 5 μl was dispensed on top of the binding reaction. The reaction mixture was allowed to equilibrate for 30 minutes and the resulting signal (665 nm/620 nm ratio) was obtained using an EnVision fluorometer. Additional binding assays were established between the human proteins PD-1-Ig/PD-L2-His (20 & 5 nM, respectively) and CD80-His/PD-L1-Ig (100 & 10 nM, respectively).
Recombinant Proteins: Human PD-1 (25-167) with a C-terminal human Fc domain of immunoglobulin G (Ig) epitope tag [hPD-1 (25-167)-3S-IG] and human PD-L1 (18-239) with a C-terminal His epitope tag [hPD-L1(18-239)-TVMV-His] were expressed in HEK293T cells and purified sequentially by ProteinA affinity chromatography and size exclusion chromatography. Human PD-L2-His and CD80-His was obtained through commercial sources.
Table 1 lists the IC50 values for representative examples of this disclosure measured in the PD-1/PD-L1 Homogenous Time-Resolved Fluorescence (HTRF) binding assay.

The values that follow come from patent US20230365627A1, “MACROCYCLIC PEPTIDE BORONATE IMMUNOMODULATORS” (Bristol-Myers Squibb Company, priority 2020, published 2023).

As usually defined, the IC50 is the concentration at which inhibition is half-maximal.

*1 amine or outer side, *2 acyl side, *3 side chain or, on linkers, in order; H or OH if unused. Where a SMILES comes first, the peptide text is derived from it. Bridges are numbered along the chain shown (N, C = ends). [ ]: non-standard residue; d: D form. Trp(1-CH2CO) = O=C([C@H](Cc1cn(CC(=O)[*:3])c2ccccc12)N[*:1])[*:2]; X7 = O=C([C@H](CNCc1cc(B(O)O[*:3])ccc1OCc1ccccc1)N[*:1])[*:2]; X22 = O=C([C@H](CNCc1c(B(O)O[*:3])ccc(Cl)c1F)N[*:1])[*:2]; X29 = COc1ccc(B(O)O[*:3])c(CNC[C@H](N[*:1])C(=O)[*:2])c1; Trp(1-CH2COOH) = N[C@@H](Cc1cn(CC(=O)O)c2ccccc12)C(=O)O; X30 = O=C([C@H](CNCc1ccc(B(O)O)cc1C(F)(F)F)N[*:1])[*:2]; X8 = O=C([C@H](CNCc1ccc(B(O)O[*:3])cc1Cl)N[*:1])[*:2]; X1 = Cc1cc(CNC[C@H](N[*:1])C(=O)[*:2])cc(C)c1B(O)O; X11 = COc1ccc(CNCC[C@H](N[*:1])C(=O)[*:2])cc1B(O)O; X10 = COc1ccc(CNC[C@H](N[*:1])C(=O)[*:2])cc1B(O)O; X9 = O=C([C@H](CCNCc1ccc(B(O)O)cc1Cl)N[*:1])[*:2]; Hyp = O=C(O)[C@@H]1C[C@@H](O)CN1; NMeNle = CCCC[C@H](NC)C(=O)O; NMeA = CN[C@@H](C)C(=O)O; Dab = NCC[C@H](N)C(=O)O

Chain of PD-1/PD-L1 (Q9NZQ7 18-239): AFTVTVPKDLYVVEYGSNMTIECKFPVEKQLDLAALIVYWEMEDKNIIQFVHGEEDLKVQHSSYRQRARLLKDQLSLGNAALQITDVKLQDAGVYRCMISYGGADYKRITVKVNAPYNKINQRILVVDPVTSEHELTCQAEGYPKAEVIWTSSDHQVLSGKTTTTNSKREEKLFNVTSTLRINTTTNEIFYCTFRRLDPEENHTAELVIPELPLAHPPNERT

In the case of `CCCC[C@H]1C(=O)N(C)[C@@H](CCCC)C(=O)N[C@@H](CC(C)C)C(=O)N[C@H](C(=O)NCC(N)=O)CSCC(=O)N[C@@H](Cc2ccc(O)cc2)C(=O)N(C)[C@@H](C)C(=O)N[C@@H](CC(N)=O)C(=O)N2CCC[C@H]2C(=O)N[C@H]2CNCc3ccc(cc3Cl)B(O)OC(=O)Cn3cc(c4ccccc43)C[C@H](NC(=O)[C@H](CCNCc3ccc(B(O)O)cc3Cl)NC(=O)[C@H](Cc3c[nH]c4ccccc34)NC(=O)[C@@H]3C[C@@H](O)CN3C(=O)[C@H](CC(C)C)NC2=O)C(=O)N1C` [Example 1033] ({CH2CO}-Y[NMeA]NP[X8]L[Hyp]W[X9][Trp(1-CH2CO)][NMeNle][NMeNle]LCG-NH2; ester 5-10; thioether N-14), the IC50 turned out to be 9 nM.
To `CCCC[C@H]1C(=O)N(C)[C@@H](CCCC)C(=O)N[C@@H](CC(C)C)C(=O)N[C@H](C(=O)NCC(N)=O)CSCC(=O)N[C@@H](Cc2ccc(O)cc2)C(=O)N(C)[C@@H](C)C(=O)N[C@@H](CC(N)=O)C(=O)N2CCC[C@H]2C(=O)N[C@H]2CNCc3cc(OC)ccc3B(O)OC(=O)Cn3cc(c4ccccc43)C[C@H](NC(=O)[C@H](CCN)NC(=O)[C@H](Cc3c[nH]c4ccccc34)NC(=O)[C@@H]3C[C@@H](O)CN3C(=O)[C@H](CC(C)C)NC2=O)C(=O)N1C` [Example 1006] ({CH2CO}-Y[NMeA]NP[X29]L[Hyp]W[Dab][Trp(1-CH2CO)][NMeNle][NMeNle]LCG-NH2; ester 5-10; thioether N-14) belongs 9 nM.
Under `CCCC[C@H]1C(=O)N(C)[C@@H](CCCC)C(=O)N[C@@H](CC(C)C)C(=O)N[C@H](C(=O)NCC(N)=O)CSCC(=O)N[C@H]2Cc3ccc(cc3)OB(O)c3ccc(c(F)c3)CNCC[C@@H]3NC(=O)[C@H](Cc4c[nH]c5ccccc45)NC(=O)[C@@H]4C[C@@H](O)CN4C(=O)[C@H](CC(C)C)NC(=O)[C@H](CNCc4ccc(cc4F)B(O)OC(=O)Cn4cc(c5ccccc54)C[C@H](NC3=O)C(=O)N1C)NC(=O)[C@@H]1CCCN1C(=O)[C@H](CC(N)=O)NC(=O)[C@H](C)N(C)C2=O` [Example 1028] stands 4.6 nM; under `CCCC[C@H]1C(=O)N(C)[C@@H](CCCC)C(=O)N[C@@H](CC(C)C)C(=O)N[C@H](C(=O)NCC(N)=O)CSCC(=O)N[C@H]2Cc3ccc(cc3)OB(O)c3ccc(nc3)CNCC[C@@H]3NC(=O)[C@H](Cc4c[nH]c5ccccc45)NC(=O)[C@@H]4C[C@@H](O)CN4C(=O)[C@H](CC(C)C)NC(=O)[C@H](CNCc4ccc(cn4)B(O)OC(=O)Cn4cc(c5ccccc54)C[C@H](NC3=O)C(=O)N1C)NC(=O)[C@@H]1CCCN1C(=O)[C@H](CC(N)=O)NC(=O)[C@H](C)N(C)C2=O` [Example 1034], 11 nM; under `CCCC[C@H]1C(=O)N(C)[C@@H](CCCC)C(=O)N[C@@H](CC(C)C)C(=O)N[C@H](C(=O)NCC(N)=O)CSCC(=O)N[C@@H](Cc2ccc(O)cc2)C(=O)N(C)[C@@H](C)C(=O)N[C@@H](CC(N)=O)C(=O)N2CCC[C@H]2C(=O)N[C@H]2CNCc3ccc(cc3)B3OB(O3)c3cccc(c3)CNCC[C@H](NC(=O)[C@H](Cc3c[nH]c4ccccc34)NC(=O)[C@@H]3C[C@@H](O)CN3C(=O)[C@H](CC(C)C)NC2=O)C(=O)N[C@@H](Cc2cn(CC(=O)O)c3ccccc23)C(=O)N1C` [Example 1005], 7.1 nM.
Under `CCCC[C@H]1C(=O)N(C)[C@@H](CCCC)C(=O)N[C@@H](CC(C)C)C(=O)N[C@H](C(=O)NCC(N)=O)CSCC(=O)N[C@H]2Cc3ccc(cc3)OB(O)c3cc(F)c(F)cc3CNCC[C@@H]3NC(=O)[C@H](Cc4c[nH]c5ccccc45)NC(=O)[C@@H]4C[C@@H](O)CN4C(=O)[C@H](CC(C)C)NC(=O)[C@H](CNCc4cc(F)c(F)cc4B(O)OC(=O)Cn4cc(c5ccccc54)C[C@H](NC3=O)C(=O)N1C)NC(=O)[C@@H]1CCCN1C(=O)[C@H](CC(N)=O)NC(=O)[C@H](C)N(C)C2=O` [Example 1031] stands 10 nM; under `CCCC[C@H]1C(=O)N(C)[C@@H](CCCC)C(=O)N[C@@H](CC(C)C)C(=O)N[C@H](C(=O)NCC(N)=O)CSCC(=O)N[C@@H](Cc2ccc(O)cc2)C(=O)N(C)[C@@H](C)C(=O)N[C@@H](CC(N)=O)C(=O)N2CCC[C@H]2C(=O)N[C@@H](CNCc2ccc(B(O)O)cc2C(F)(F)F)C(=O)N[C@@H](CC(C)C)C(=O)N2C[C@H](O)C[C@H]2C(=O)N[C@@H](Cc2c[nH]c3ccccc23)C(=O)N[C@@H](CCN)C(=O)N[C@@H](Cc2cn(CC(=O)O)c3ccccc23)C(=O)N1C` [Example 1025] ({CH2CO}-Y[NMeA]NP[X30]L[Hyp]W[Dab][Trp(1-CH2COOH)][NMeNle][NMeNle]LCG-NH2; thioether N-14), 14 nM.
As for `CCCC[C@H]1C(=O)N(C)[C@@H](CCCC)C(=O)N[C@@H](CC(C)C)C(=O)N[C@H](C(=O)NCC(N)=O)CSCC(=O)N[C@@H](Cc2ccc(O)cc2)C(=O)N(C)[C@@H](C)C(=O)N[C@@H](CC(N)=O)C(=O)N2CCC[C@H]2C(=O)N[C@@H](CNCc2cc(C)c(B(O)O)c(C)c2)C(=O)N[C@@H](CC(C)C)C(=O)N2C[C@H](O)C[C@H]2C(=O)N[C@@H](Cc2c[nH]c3ccccc23)C(=O)N[C@@H](CCN)C(=O)N[C@@H](Cc2cn(CC(=O)O)c3ccccc23)C(=O)N1C` [Example 1014] ({CH2CO}-Y[NMeA]NP[X1]L[Hyp]W[Dab][Trp(1-CH2COOH)][NMeNle][NMeNle]LCG-NH2; thioether N-14), the IC50 turned out to be 8.2 nM.
To `CCCC[C@H]1C(=O)N(C)[C@@H](CCCC)C(=O)N[C@@H](CC(C)C)C(=O)N[C@H](C(=O)NCC(N)=O)CSCC(=O)N[C@@H](Cc2ccc(O)cc2)C(=O)N(C)[C@@H](C)C(=O)N[C@@H](CC(N)=O)C(=O)N2CCC[C@H]2C(=O)N[C@H]2CNCc3c(ccc(Cl)c3F)B(O)OC(=O)Cn3cc(c4ccccc43)C[C@H](NC(=O)[C@H](CCN)NC(=O)[C@H](Cc3c[nH]c4ccccc34)NC(=O)[C@@H]3C[C@@H](O)CN3C(=O)[C@H](CC(C)C)NC2=O)C(=O)N1C` [Example 1017] ({CH2CO}-Y[NMeA]NP[X22]L[Hyp]W[Dab][Trp(1-CH2CO)][NMeNle][NMeNle]LCG-NH2; ester 5-10; thioether N-14) belongs 7.1 nM; to `CCCC[C@H]1C(=O)N(C)[C@@H](CCCC)C(=O)N[C@@H](CC(C)C)C(=O)N[C@H](C(=O)NCC(N)=O)CSCC(=O)N[C@@H](Cc2ccc(O)cc2)C(=O)N(C)[C@@H](C)C(=O)N[C@@H](CC(N)=O)C(=O)N2CCC[C@H]2C(=O)N[C@H]2CNCc3cc(ccc3OCc3ccccc3)B(O)OC(=O)Cn3cc(c4ccccc43)C[C@H](NC(=O)[C@H](CCN)NC(=O)[C@H](Cc3c[nH]c4ccccc34)NC(=O)[C@@H]3C[C@@H](O)CN3C(=O)[C@H](CC(C)C)NC2=O)C(=O)N1C` [Example 1019] ({CH2CO}-Y[NMeA]NP[X7]L[Hyp]W[Dab][Trp(1-CH2CO)][NMeNle][NMeNle]LCG-NH2; ester 5-10; thioether N-14), 4.8 nM; to `CCCC[C@H]1C(=O)N(C)[C@@H](CCCC)C(=O)N[C@@H](CC(C)C)C(=O)N[C@H](C(=O)NCC(N)=O)CSCC(=O)N[C@@H](Cc2ccc(O)cc2)C(=O)N(C)[C@@H](C)C(=O)N[C@@H](CC(N)=O)C(=O)N2CCC[C@H]2C(=O)N[C@@H](CNCc2cc(C)c(B(O)O)c(C)c2)C(=O)N[C@@H](CC(C)C)C(=O)N2C[C@H](O)C[C@H]2C(=O)N[C@@H](Cc2c[nH]c3ccccc23)C(=O)N[C@@H](CCN)C(=O)N[C@@H](Cc2cn(CC(=O)O)c3ccccc23)C(=O)N1C` [Example 1027] ({CH2CO}-Y[NMeA]NP[X1]L[Hyp]W[Dab][Trp(1-CH2COOH)][NMeNle][NMeNle]LCG-NH2; thioether N-14), 3.8 nM.
Under `CCCC[C@H]1C(=O)N(C)[C@@H](CCCC)C(=O)N[C@@H](CC(C)C)C(=O)N[C@H](C(=O)NCC(N)=O)CSCC(=O)N[C@@H](Cc2ccc(O)cc2)C(=O)N(C)[C@@H](C)C(=O)N[C@@H](CC(N)=O)C(=O)N2CCC[C@H]2C(=O)N[C@@H](CNCc2ccc(OC)c(B(O)O)c2)C(=O)N[C@@H](CC(C)C)C(=O)N2C[C@H](O)C[C@H]2C(=O)N[C@@H](Cc2c[nH]c3ccccc23)C(=O)N[C@@H](CCNCc2ccc(OC)c(B(O)O)c2)C(=O)N[C@@H](Cc2cn(CC(=O)O)c3ccccc23)C(=O)N1C` [Example 1032] ({CH2CO}-Y[NMeA]NP[X10]L[Hyp]W[X11][Trp(1-CH2COOH)][NMeNle][NMeNle]LCG-NH2; thioether N-14) stands 5.9 nM.
